Laboratory results published in patent publication US11370763B2, “Compounds and compositions for treating conditions associated with NLRP activity” (Novartis AG, priority 2017, dated 2022).
Read-outs that look alike come from different tables or passages of the source.

Tested on: IL-1β production in PMA-differentiated THP-1 cells
Experiment: IL-1β production in PMA-differentiated THP-1 cells stimulated with gramicidin (hTHP-1 assay containing 2% fetal bovine serum; Procedures 1-3)
Format: cell-based, human
Settings: read-out: hTHP-1 IC50 (Average IC50 of compounds in hTHP-1 assay)
Procedure: The following protocol is suitable for testing the activity of the compounds disclosed herein.
Procedure 1: IL-1β Production in PMA-Differentiated THP-1 Cells Stimulated with Gramicidin
THP-1 cells were purchased from the American Type Culture Collection and sub-cultured according to instructions from the supplier. Cells were cultured in complete RPMI 1640 (containing 10% heat inactivated FBS, penicillin (100 units/ml) and streptomycin (100 μg/ml)), and maintained in log phase prior to experimental setup. Prior to the experiment, compounds were dissolved in dimethyl sulfoxide (DMSO) to generate a 30 mM stock. The compound stock was first pre-diluted in DMSO to 3, 0.34, 0.042 and 0.0083 mM intermediate concentrations and subsequently spotted using Echo550 liquid handler into an empty 384-well assay plate to achieve desired final concentration (e.g. 100, 33, 11, 3.7, 1.2, 0.41, 0.14, 0.046, 0.015, 0.0051, 0.0017 μM). DMSO was backfilled in the plate to achieve a final DMSO assay concentration of 0.37%. The plate was then sealed and stored at room temperature until required.
THP-1 cells were treated with PMA (Phorbol 12-myristate 13-acetate) (20 ng/ml) for 16-18 hours. On the day of the experiment the media was removed and adherent cells were detached with trypsin for 5 minutes. Cells were then harvested, washed with complete RPMI 1640, spun down, and resuspended in RPMI 1640 (containing 2% heat inactivated FBS, penicillin (100 units/ml) and streptomycin (100 μg/ml). The cells were plated in the 384-well assay plate containing the spotted compounds at a density of 50,000 cells/well (final assay volume 50 μl). Cells were incubated with compounds for 1 hour and then stimulated with gramicidin (5 μM) (Enzo) for 2 hours. Plates were then centrifuged at 340 g for 5 min. Cell free supernatant (40 μL) was collected using a 96-channel PlateMaster (Gilson) and the production of IL-1β was evaluated by HTRF (cisbio). The plates were incubated for 18 h at 4° C. and read using the preset HTRF program (donor emission at 620 nm, acceptor emission at 668 nm) of the SpectraMax i3x spectrophotometer (Molecular Devices, software SoftMax 6). A vehicle only control and a dose titration of CRID3 (100-0.0017 μM) were run concurrently with each experiment.
Procedure 2: IL-1β Production in PMA-Differentiated THP-1 Cells Stimulated with Gramicidin
THP-1 cells were purchased from the American Type Culture Collection and sub-cultured according to instructions from the supplier. Prior to experiments, cells were cultured in complete RPMI 1640 (containing 10% heat inactivated FBS, penicillin (100 units/ml) and streptomycin (100 μg/ml)), and maintained in log phase prior to experimental setup. Prior to the experiment THP-1 were treated with PMA (Phorbol 12-myristate 13-acetate) (20 ng/ml) for 16-18 hours. Compounds were dissolved in dimethyl sulfoxide (DMSO) to generate a 30 mM stock. On the day of the experiment the media was removed and adherent cells were detached with trypsin for 5 minutes. Cells were then harvested, washed with complete RPMI 1640, spun down, resuspended in RPMI 1640 (containing 2% heat inactivated FBS, penicillin (100 units/ml) and streptomycin (100 μg/ml). The cells were plated in a 384-well plate at a density of 50,000 cells/well (final assay volume 50 μl). Compounds were first dissolved in assay medium to obtain a 5× top concentration of 500 μM. 10 step dilutions (1:3) were then undertaken in assay medium containing 1.67% DMSO. 5× compound solutions were added to the culture medium to achieve desired final concentration (e.g. 100, 33, 11, 3.7, 1.2, 0.41, 0.14, 0.046, 0.015, 0.0051, 0.0017 μM). Final DMSO concentration was at 0.37%. Cells were incubated with compounds for 1 hour and then stimulated with gramicidin (5 μM) (Enzo) for 2 hours. Plates were then centrifuged at 340 g for 5 min. Cell free supernatant (40 μL) was collected using a 96-channel PlateMaster (Gilson) and the production of IL-1β was evaluated by HTRF (cisbio). […]

[1] = hTHP-1 assay containing 2% fetal bovine serum, class symbols
[2] = Homo sapiens, THP-1, hTHP-1 assay containing 2% fetal bovine serum, class symbols
[3] = Homo sapiens, THP-1, hTHP-1 assay containing 2% fetal bovine serum, given as numeric bound

| IC50 [1] [nM] | Structure (SMILES) | further results |
| --- | --- | --- |
| 40 to 200 | CC(C)c1cc(OC(F)F)cc(C(C)C)c1CC(=O)N=S(N)(=O)c1sc(C(C)(C)O)cc1F (single isomer, unassigned) [Example 76, (S)- or (R)-2-(4-(difluoromethoxy)-2,6-diisopropylphenyl)-N-(3-fluoro-5-(2-hydroxypropan-2-yl)thiophen-2-ylsulfonimidoyl)acetamide] |  |
| 200 to 1000 | CCc1cc(OC(F)F)cc(C(C)C)c1CC(=O)N=S(N)(=O)c1sc(C(C)(C)O)cc1F (single isomer, unassigned) [Example 78, (S)- or (R)-2-(4-(difluoromethoxy)-2-ethyl-6-isopropylphenyl)-N-(3-fluoro-5-(2-hydroxypropan-2-yl)thiophen-2-ylsulfonimidoyl)acetamide] |  |
|  | CC(C)c1cc(C#N)cc(C(C)C)c1CC(=O)N=S(N)(=O)c1ccc(C(C)(C)O)cc1Cl (single isomer, unassigned) [Example 155, (R) or (S)-N-(amino(2-chloro-4-(2-hydroxypropan-2-yl)phenyl)(oxo)-λ^6-sulfaneylidene)-2-(4-cyano-2,6-diisopropylphenyl)acetamide] | IC50 [2]: 200 to 1000 nM |
| 200 to 1000 | CC(C)c1cc(C#N)cc(C(C)C)c1CC(=O)N=S(N)(=O)c1ccc(C(C)(C)O)cc1Cl (single isomer, unassigned) [Example 156, (S) or (R)-N-(amino(2-chloro-4-(2-hydroxypropan-2-yl)phenyl)(oxo)-λ^6-sulfaneylidene)-2-(4-cyano-2,6-diisopropylphenyl)acetamide] |  |
| 40 to 200 | CC(C)c1ccc(F)c(C(C)C)c1CC(=O)N=S(N)(=O)c1cc(C(C)(C)O)cs1 (single isomer, unassigned) [Example 159, (R) or (S)-N-(amino(4-(2-hydroxypropan-2-yl)thiophen-2-yl)(oxo)-λ^6-sulfaneylidene)-2-(3-fluoro-2,6-diisopropylphenyl)acetamide] |  |
| 40 to 200 | CC(C)c1cc(-c2ccc3c(c2)OC(F)(F)O3)cc(C(C)C)c1CC(=O)N=S(N)(=O)c1ncc(C(C)(C)O)s1 (single isomer, unassigned) [Example 166, (R) or (S)-N-(amino(5-(2-hydroxypropan-2-yl)thiazol-2-yl)(oxo)-λ^6-sulfaneylidene)-2-(4-(2,2-difuorobenzo[d][1,3]dioxol-5-yl)-2,6-diisopropylphenyl)acetamide] |  |
| 200 to 1000 | Cc1ccc(-c2cc(C(C)C)c(CC(=O)N=S(N)(=O)c3ncc(C(C)(C)O)s3)c(C(C)C)c2)cc1C (single isomer, unassigned) [Example 168, (R) or (S)-N-(amino(5-(2-hydroxypropan-2-yl)thiazol-2-yl)(oxo)-λ^6-sulfaneylidene)-2-(3,5-diisopropyl-3′,4′-dimethyl-[1,1′-biphenyl]-4-yl)acetamide] |  |
| 200 to 1000 | CC(C)c1cc(-c2ccc(Cl)c(Cl)c2)cc(C(C)C)c1CC(=O)N=S(N)(=O)c1ncc(C(C)(C)O)s1 (single isomer, unassigned) [Example 170, (R) or (S)-N-(amino(5-(2-hydroxypropan-2-yl)thiazol-2-yl)(oxo)-λ^6-sulfaneylidene)-2-(3′,4′-dichloro-3,5-diisopropyl-[1,1′-biphenyl]-4-yl)acetamide] |  |
| 200 to 1000 | CC(C)c1cc(-c2ccc3c(c2)COCC3)cc(C(C)C)c1CC(=O)N=S(N)(=O)c1cnc(C(C)(C)O)s1 (single isomer, unassigned) [Example 171, (R) or (S)-N-(amino(2-(2-hydroxypropan-2-yl)thiazol-5-yl)(oxo)-λ^6-sulfaneylidene)-2-(4-(isochroman-7-yl)-2,6-diisopropylphenyl)acetamide] |  |
| 200 to 1000 | CC(C)c1ccc(F)c(C(C)C)c1CC(=O)N=S(N)(=O)c1ccc(C(C)(C)O)s1 (single isomer, unassigned) [Example 176, (R) or (S)-N-(amino(5-(2-hydroxypropan-2-yl)thiophen-2-yl)(oxo)-λ^6-sulfaneylidene)-2-(3-fluoro-2,6-diisopropylphenyl)acetamide] |  |
| 200 to 1000 | CC(C)c1ccc(C#N)c(C(C)C)c1CC(=O)N=S(N)(=O)c1nc(C(C)(C)O)cs1 (single isomer, unassigned) [Example 179, (R) or (S)-N-(amino(4-(2-hydroxypropan-2-yl)thiazol-2-yl)(oxo)-λ^6-sulfaneylidene)-2-(3-cyano-2,6-diisopropylphenyl)acetamide] |  |
| 40 to 200 | COCc1cc(C(C)C)c(CC(=O)N=S(N)(=O)c2ncc(C(C)(C)O)s2)c(C(C)C)c1 (single isomer, unassigned) [Example 185, (R) or (S)-N-(amino(5-(2-hydroxypropan-2-yl)thiazol-2-yl)(oxo)-λ^6-sulfaneylidene)-2-(2,6-diisopropyl-4-(methoxymethyl)phenyl) acetamide] |  |
|  | CC(C)c1cc2c(c(C(C)C)c1CC(=O)N=S(N)(=O)c1ccc(CN(C)C)cc1)COC2 (single isomer, unassigned) [Example 191, (R) or (S)-N-(amino(4-((dimethylamino)methyl)phenyl) (oxo)-λ^6-sulfaneylidene)-2-(4,6-diisopropyl-1,3-dihydroisobenzofuran-5-yl)acetamide] | IC50 [2]: 1000 to 5000 nM |
|  | CC(C)c1cc2c(c(C(C)C)c1CC(=O)N=S(N)(=O)c1ccc(CN(C)C)cc1)COC2 (single isomer, unassigned) [Example 192, (S) or (R)-N-(amino(4-((dimethylamino)methyl)phenyl) (oxo)-λ^6-sulfaneylidene)-2-(4,6-diisopropyl-1,3-dihydroisobenzofuran-5-yl)acetamide] | IC50 [3]: > 30000 nM |
|  | CC(C)c1cc(F)cc(C(C)C)c1C(C)C(=O)N=S(N)(=O)c1cnc(C(C)(C)O)s1 (single isomer, unassigned) [Example 194, (R, S) or (R, R)-N-(amino(2-(2-hydroxypropan-2-yl)thiazol-5-yl)(oxo)-λ^6-sulfaneylidene)-2-(4-fluoro-2,6-diisopropylphenyl) propanamide] | IC50 [2]: 5000 to 30000 nM |
|  | CC(C)c1cc(F)cc(C(C)C)c1C(C)C(=O)N=S(N)(=O)c1cnc(C(C)(C)O)s1 (single isomer, unassigned) [Example 195, (R, R) or (R, S)-N-(amino(2-(2-hydroxypropan-2-yl)thiazol-5-yl)(oxo)-λ^6-sulfaneylidene)-2-(4-fluoro-2,6-diisopropylphenyl) propanamide] | IC50 [3]: > 30000 nM |
|  | CC(C)(O)c1ncc(S(N)(=O)=NC(=O)Cc2c(C3CC3)cc(F)cc2C(F)(F)F)s1 (single isomer, unassigned) [Example 196, (R) or (S)-N-(amino(2-(2-hydroxypropan-2-yl)thiazol-5-yl)(oxo)-λ^6-sulfaneylidene)-2-(2-cyclopropyl-4-fluoro-6-(trifluoromethyl)phenyl) acetamide] | IC50 [2]: 5000 to 30000 nM |
|  | CC(C)(O)c1ncc(S(N)(=O)=NC(=O)Cc2c(C3CC3)cc(F)cc2C(F)(F)F)s1 (single isomer, unassigned) [Example 197, (S) or (R)-N-(amino(2-(2-hydroxypropan-2-yl)thiazol-5-yl)(oxo)-λ^6-sulfaneylidene)-2-(2-cyclopropyl-4-fluoro-6-(trifluoromethyl)phenyl) acetamide] | IC50 [3]: > 30000 nM |
